From patent publication US20240391931A1 (Bristol-Myers Squibb Company, priority 2021, published 2024) come the findings set out here.

The target in experiment [1] is EGFR (Homo sapiens, UniProt P00533). The experiment is described as follows: EGFR occupancy in N87 cells. It is filed as cell-based. Set-up: endogenous in cells; host or cells: N87. Particulars: N87 cells; concentration at which 50% of EGFR is irreversible bound; read-out: N87 EGFR Occ. The procedure: In order to assess free EGFR protein, a biotinylated probe was utilized as described for HER2 occupancy. N87 cells were plated, treated, and lysed as described for HER2 occupancy method. After treatment, the cells were washed three times with cold PBS, lysed at room temperature for 1 hr in modified occupancy lysis buffer (prepared as described in section titled “HER2 Occupancy Assay”). Lysates were stored at −70° C. until further analysis. For determination of % occupancy, lysates were loaded into duplicate plates of the phospho (Tyr 1068)/total EGFR whole cell lysate kit (Meso-Scale Discovery) and incubated overnight. Plates were washed and incubated with either EGFR-sulfoTag (1:50, Meso Scale Discovery) or Strep-Sulfo Tag (1:1000, Meso Scale Discovery), for detection of free and total EGFR, respectively. BSA control spots included in MSD plates were used to subtract non-specific signal. A standard curve of untreated cells in serial dilution was included in each plate to convert streptavidin and total EGFR MSD signals into free EGFR and total EGFR. Free EGFR was normalized to total EGFR for each sample. Data, reported as % […] control, was fitted using a sigmoidal curve analysis program (Graph Pad Prism version 6) with variable Hill slope to determine EC50 values. The results are provided in Table 4, under column titled “N87-EGFR Occ”. EGFR Occ is the concentration of test compound at which 50% of EGFR is irreversible bound.

Experiment [2] deals with T1, HER2 (Homo sapiens, UniProt P04626).
T1 construct: BT474 and N87 cell lines which endogenously overexpress the HER2 wildtype (WT) protein; endogenous in cells; host or cells: BT474, N87
The experiment is described as follows: HER2 occupancy assay in N87 cells. The note with it: concentration at which 50% of HER2 is irreversible bound, read-out: N87 HER2 Occ. It counts as cell-based. How it is done: In order to assess free HER2 protein, a biotinylated probe was utilized. BT474, N87, and Ba/F3-HER2YVMA cells were treated with test compound as described for HER2 signaling. After compound treatment, cells were washed three times with cold phosphate buffer saline (PBS, Life Technologies, Carlsbad, CA), and lysed in modified occupancy lysis buffer prepared with an irreversible biotinylated tool compound (1 μM) in 25 mM Tris pH 7.5, 150 mM NaCl, 1% Triton, and supplemented with cOmplete, EDTA-free Protease inhibitor cocktail (Roche), Phosphatase Inhibitor Cocktails 2 and 3 (Sigma-Aldrich), and 1 mM PMSF (Sigma-Aldrich).
To determine % occupancy, lysates were loaded into duplicate plates of the phospho (Tyr1248)/total ErbB2 whole cell lysate MSD kit (Meso-Scale Discovery) and incubated overnight. Plates were washed and incubation with either HER2-sulfoTag (1:50, Meso Scale Discovery) or Strep-Sulfo Tag (1:1000, Meso Scale Discovery), for detection of […]. A standard curve of untreated cells in serial dilution was included in each plate to independently fit streptavidin (Free HER2) and total HER2 MSD signals; non-specific signal (BSA control spots) was subtracted from each well. Free HER2 was then normalized by total HER2 for each sample. The results are reported as % DMSO control. The normalized data was fitted using a sigmoidal curve analysis program (Graph Pad Prism version 6) with variable Hill slope to determine EC50 values. The results are provided in Table 4, under columns titled “BT474-HER2 Occ”, “N87-HER2 Occ”, and “Ba/F3 YVMA-HER2 Occ”. HER2 Occ is the concentration of test compound at which 50% of HER2 is irreversible bound.

T1 sequence (P04626 23-1255): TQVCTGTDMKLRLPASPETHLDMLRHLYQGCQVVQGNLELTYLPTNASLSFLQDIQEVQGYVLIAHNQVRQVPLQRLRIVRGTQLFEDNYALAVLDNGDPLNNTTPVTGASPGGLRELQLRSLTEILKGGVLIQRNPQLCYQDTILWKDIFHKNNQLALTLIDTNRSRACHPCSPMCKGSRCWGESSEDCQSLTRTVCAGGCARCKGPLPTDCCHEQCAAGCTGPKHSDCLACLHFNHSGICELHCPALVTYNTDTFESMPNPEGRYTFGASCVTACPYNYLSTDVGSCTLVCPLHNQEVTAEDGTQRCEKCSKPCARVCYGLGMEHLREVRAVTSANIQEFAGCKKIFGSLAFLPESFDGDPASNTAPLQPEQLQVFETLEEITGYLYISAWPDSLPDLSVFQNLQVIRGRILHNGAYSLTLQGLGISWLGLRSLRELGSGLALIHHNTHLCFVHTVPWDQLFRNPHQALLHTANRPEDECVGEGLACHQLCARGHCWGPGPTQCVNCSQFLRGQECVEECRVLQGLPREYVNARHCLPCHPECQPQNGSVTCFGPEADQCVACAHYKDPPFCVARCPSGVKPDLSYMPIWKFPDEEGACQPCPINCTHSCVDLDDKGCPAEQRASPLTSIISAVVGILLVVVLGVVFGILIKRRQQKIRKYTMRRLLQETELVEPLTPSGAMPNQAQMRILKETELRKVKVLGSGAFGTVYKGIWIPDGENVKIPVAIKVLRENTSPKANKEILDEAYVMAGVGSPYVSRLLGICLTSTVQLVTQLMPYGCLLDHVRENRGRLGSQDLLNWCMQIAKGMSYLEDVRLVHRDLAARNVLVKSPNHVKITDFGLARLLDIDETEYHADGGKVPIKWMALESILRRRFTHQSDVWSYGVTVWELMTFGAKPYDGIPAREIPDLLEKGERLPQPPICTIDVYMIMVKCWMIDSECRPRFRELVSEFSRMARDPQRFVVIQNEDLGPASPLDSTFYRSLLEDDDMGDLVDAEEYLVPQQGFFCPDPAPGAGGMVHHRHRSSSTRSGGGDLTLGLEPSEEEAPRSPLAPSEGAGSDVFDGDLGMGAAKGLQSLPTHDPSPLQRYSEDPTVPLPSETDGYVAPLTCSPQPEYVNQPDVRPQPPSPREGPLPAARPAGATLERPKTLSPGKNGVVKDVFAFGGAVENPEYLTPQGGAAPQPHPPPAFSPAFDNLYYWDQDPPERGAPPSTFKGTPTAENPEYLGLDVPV
Sequence of EGFR (P00533 25-1210): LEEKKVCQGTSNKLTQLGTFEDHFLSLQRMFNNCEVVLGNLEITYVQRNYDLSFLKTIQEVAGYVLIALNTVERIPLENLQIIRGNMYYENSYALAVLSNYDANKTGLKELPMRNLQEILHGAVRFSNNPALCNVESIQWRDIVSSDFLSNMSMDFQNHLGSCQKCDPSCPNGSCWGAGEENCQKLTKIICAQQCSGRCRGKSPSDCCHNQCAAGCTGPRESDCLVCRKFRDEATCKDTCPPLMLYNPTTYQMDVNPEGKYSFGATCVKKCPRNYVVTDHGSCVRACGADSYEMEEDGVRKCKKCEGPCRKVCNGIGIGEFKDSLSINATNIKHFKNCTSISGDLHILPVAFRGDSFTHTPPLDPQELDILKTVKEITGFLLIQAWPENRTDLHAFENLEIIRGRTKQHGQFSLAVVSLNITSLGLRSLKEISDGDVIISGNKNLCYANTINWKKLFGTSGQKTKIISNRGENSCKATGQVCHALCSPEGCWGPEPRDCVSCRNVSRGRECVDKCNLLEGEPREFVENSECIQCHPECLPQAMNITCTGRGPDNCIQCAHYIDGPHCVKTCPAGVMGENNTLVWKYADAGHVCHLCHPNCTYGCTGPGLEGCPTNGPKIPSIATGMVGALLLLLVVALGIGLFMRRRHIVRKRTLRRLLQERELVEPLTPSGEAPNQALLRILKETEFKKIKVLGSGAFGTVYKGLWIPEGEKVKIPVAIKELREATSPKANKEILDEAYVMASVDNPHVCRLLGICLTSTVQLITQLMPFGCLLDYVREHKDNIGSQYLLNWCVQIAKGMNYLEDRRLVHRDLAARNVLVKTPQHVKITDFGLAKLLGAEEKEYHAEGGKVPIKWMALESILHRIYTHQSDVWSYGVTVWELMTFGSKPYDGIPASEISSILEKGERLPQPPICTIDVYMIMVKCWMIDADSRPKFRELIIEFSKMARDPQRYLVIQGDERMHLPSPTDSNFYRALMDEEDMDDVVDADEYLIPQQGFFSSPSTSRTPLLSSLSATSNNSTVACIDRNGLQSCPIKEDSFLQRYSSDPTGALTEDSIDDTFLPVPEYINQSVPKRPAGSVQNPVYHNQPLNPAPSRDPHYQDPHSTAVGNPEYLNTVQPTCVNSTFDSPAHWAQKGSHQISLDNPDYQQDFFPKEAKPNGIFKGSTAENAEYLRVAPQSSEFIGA

Consider `COc1ccc(Oc2ccc(Nc3ncnc4sc5c(c34)CCN(C(=O)/C=C/CN(C)C)C5)cc2C)cn1` [Compound 95, (E)-4-(Dimethylamino)-1-(4-((4-((6-methoxypyridin-3-yl)oxy)-3-methylphenyl)amino)-5,6-dihydropyrido[4′,3′:4,5]thieno[2,3-d]pyrimidin-7(8H)-yl)but-2-en-1-one], for which the EC50 in experiment [1] was 0.1 to 0.35 µM; in experiment [2] it was less than 0.1 µM.
As to `CN(C)C/C=C/C(=O)N1CCc2c(sc3ncnc(Nc4ccc(Oc5ccc6ncnn6c5)c(Cl)c4)c23)C1` [Compound 5, (E)-1-(4-((4-([1,2,4]triazolo[1,5-a]pyridin-6-yloxy)-3-chlorophenyl)amino)-5,8-dihydropyrido[4′,3′:4,5]thieno[2,3-d]pyrimidin-7(6H)-yl)-4-(dimethylamino)but-2-en-1-one], in experiment [2], the EC50 is less than 0.1 µM.
